Experiments:
Format in all cases: in vivo
[1] = tested on: barnyard grass (Ec); test: Test Example 2: herbicidal effects by upland soil treatment; design: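 0-5 growth inhibition grade; 5 = over 90%; 4 = 70-90%; 3 = 50-70%; 2 = 30-50%; 1 = 10-30%; 0 = under 10%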; conditions: dose 100 g active ingredient per 10 ares, examined on the 21st day after treatment, standards of Table 44
How it was run: (§1)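 Pre-emergence test: barnyard grass and green foxtail sown in upland soil, then soil surface sprayed with wettable-powder formulation at 100 g active ingredient per 10 ares (100 l per 10 ares). Grown in greenhouse; herbicidal effect scored on a rating scale 21 days after treatment.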

[2] = tested on: barnyard grass (Eo); test: Test Example 1: herbicidal effects by flooded paddy field treatment; design: herbicidal effects, Eo (barnyard grass):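 0-5 growth inhibition grade; 5 = over 90%; 4 = 70-90%; 3 = 50-70%; 2 = 30-50%; 1 = 10-30%; 0 = under 10%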; conditions: for Herbicidal effect index, Eo: dose 100 gai/10a, examined on 21st day after treatment, index 0-5 per Table 44; for herbicidal effects, Eo (barnyard grass): dose 100 g active ingredient per 10 ares, examined on the 21st day after treatment, standards of Table 44;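 on Herbicidal effect index, Eo: 0-5 growth inhibition grade; 5 = over 90%; 4 = 70-90%; 3 = 50-70%; 2 = 30-50%; 1 = 10-30%; 0 = under 10%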
How it was run: (§2)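 Flooded paddy pre-emergence test: sowing into puddled soil under 3 cm water, then dropwise water-surface treatment the following day with diluted wettable powder at 100 g active ingredient per 10 ares. Greenhouse cultivation followed, and weeds were rated against a standard scale at 21 days.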

[3] = tested on: monochoria (Mo); test: as above; design: herbicidal effects, Mo (monochoria):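 0-5 growth inhibition grade; 5 = over 90%; 4 = 70-90%; 3 = 50-70%; 2 = 30-50%; 1 = 10-30%; 0 = under 10%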; conditions: for Herbicidal effect index, Mo: dose 100 gai/10a, examined on 21st day after treatment, index 0-5 per Table 44; for herbicidal effects, Mo (monochoria): dose 100 g active ingredient per 10 ares, examined on the 21st day after treatment, standards of Table 44
How it was run: as §2

[4] = tested on: green foxtail (Se); test: Test Example 2: herbicidal effects by upland soil treatment; conditions: dose 100 g active ingredient per 10 ares, examined on the 21st day after treatment, standards of Table 44;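 further: 0-5 growth inhibition grade; 5 = over 90%; 4 = 70-90%; 3 = 50-70%; 2 = 30-50%; 1 = 10-30%; 0 = under 10%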
How it was run: as §1

[5] = tested on: monochoria (Mo); test: Test Example 4: selectivity for a crop plant by flooded paddy field treatment; design: scale not given here; conditions: for Mo (herbicidal effects, index): dose 25 g active ingredient per 10 ares, examined on the 21st day after treatment; for Mo (herbicidal effect index): monochoria, dose 25 gai/10a, 21st day after treatment, index per Table 44
How it was run: (§3)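 Steps: fill pot with paddy soil and puddle; sow weed seeds; transplant rice at second-leaf stage; flood to 3 cm. Next day, drip the water-diluted wettable powder onto the water (25 g a.i./10 ares). Grow in greenhouse and rate herbicidal effect on day 21.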

[6] = tested on: rice (Or); test: as above; design: scale not given here; conditions: rice transplanted at second leaf stage; for Or (effect on crop plant rice, index): dose 25 g active ingredient per 10 ares, examined on the 21st day after treatment; for Or (herbicidal effect index on crop): dose 25 gai/10a, 21st day after treatment, index per Table 44
How it was run: as §3

[7] = tested on: barnyard grass (Eo); test: as above; design: scale not given here; conditions: for Eo (herbicidal effects, index): dose 25 g active ingredient per 10 ares, examined on the 21st day after treatment; for Eo (herbicidal effect index): barnyard grass, dose 25 gai/10a, 21st day after treatment, index per Table 44
How it was run: as §3
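Wherever Herbicidal effect index, Mo is given: 0-5 growth inhibition grade; 5 = over 90%; 4 = 70-90%; 3 = 50-70%; 2 = 30-50%; 1 = 10-30%; 0 = under 10%.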

Structure (SMILES) | herbicidal effects, Ec (barnyard grass) [1] | Herbicidal effect index, Eo [2] | Herbicidal effect index, Mo [3] | herbicidal effects, Se (green foxtail) [4] | Mo (herbicidal effects, index) [5] | Or (effect on crop plant rice, index) [6] | Eo (herbicidal effects, index) [7] | herbicidal effects, Eo (barnyard grass) [2] | herbicidal effects, Mo (monochoria) [3] | Mo (herbicidal effect index) [5] | Or (herbicidal effect index on crop) [6] | Eo (herbicidal effect index) [7]
CC(C)C(c1cncnc1C(F)(F)Cl)N(C)C(=O)Nc1ccccc1 (racemic) [Compound 1-38] | 5 | 5 | 5 | 4 | 5 | 0 | 5 | – | – | – | – | –
Cc1ccc(CC(=O)N(C)C(c2ccc(C)cc2)c2cncnc2C(F)(F)F)cc1 (racemic) [1-228] | 5 | – | – | 5 | – | – | – | 5 | 5 | 5 | 0 | 5
Cc1ccc(CC(=O)N(C)C(c2cncnc2C(F)(F)F)C(C)C)cc1Cl (racemic) [Compound 1-121] | 5 | 5 | 5 | 4 | – | – | – | – | – | 5 | 1 | 5
Cc1ccc(CC(=O)N(C)C(c2cncnc2C(F)F)C(C)C)cc1 (racemic) [Compound 1-166] | 5 | – | – | 5 | – | – | – | 5 | 5 | 5 | 1 | 5
CC(C)C(c1cncnc1C(F)(F)F)N(C)C(=O)COc1ccccc1F (racemic) [Compound 1-125] | 5 | 5 | 5 | 5 | – | – | – | – | – | 5 | 0 | 5
CCN(C(=O)Cc1ccc(F)cc1)C(c1cncnc1C(F)F)C(C)C (racemic) [Compound 1-169] | 5 | – | – | 5 | – | – | – | 5 | 5 | 5 | 1 | 5
CCCN(C(=O)Cc1ccc(C)cc1)C(c1cncnc1C(F)(F)F)C(C)C (racemic) [Compound 1-62] | 4 | 5 | 5 | 4 | 5 | 1 | 5 | – | – | – | – | –
CC(c1cncnc1C(C)(C)C)N(C)C(=O)Cc1ccc(Cl)cc1 (racemic) [1-190] | 4 | – | – | 4 | – | – | – | 5 | 5 | 5 | 0 | 5
CN(C(=O)Cc1ccc(Cl)cc1)C(c1cncnc1C(F)(F)F)C1CCCC1 (racemic) [Compound 1-139] | 5 | – | – | 5 | – | – | – | 5 | 5 | 5 | 0 | 5
CC(C)C(c1cncnc1C(F)(F)F)N(C)C(=O)Cc1cc(F)ccc1F (racemic) [Compound 1-40] | 5 | 5 | 5 | 4 | 5 | 0 | 5 | – | – | – | – | –
Cc1ccc(CC(=O)N(C)C(c2cncnc2C(F)(F)F)C2CCCC2)cc1 (racemic) [Compound 1-141] | 5 | – | – | 5 | – | – | – | 5 | 5 | 5 | 1 | 5
CCN(C(=O)Cc1ccc(C)cc1)C(c1cncnc1C(F)F)C(C)C (racemic) [Compound 1-171] | 5 | – | – | 4 | – | – | – | 5 | 5 | 5 | 1 | 5
CC(C)C(c1cncnc1C(F)(F)F)N(C)C(=O)CSc1ccccc1 (racemic) [1-182] | 5 | – | – | 5 | – | – | – | 5 | 5 | 5 | 1 | 5
CC(C)C(c1cncnc1C(F)(F)F)N(C)C(=O)Cc1cc(F)cc(F)c1 (racemic) [Compound 1-167] | 5 | – | – | 5 | – | – | – | 5 | 5 | 5 | 1 | 5
Cc1cc(CC(=O)N(C)C(c2cncnc2C(F)(F)F)C(C)C)ccc1Cl (racemic) [Compound 1-120] | 5 | 5 | 5 | 4 | – | – | – | – | – | 5 | 0 | 5
Cc1ccc(OCC(=O)N(C)C(c2cncnc2C(F)(F)F)C(C)C)cc1 (racemic) [Compound 1-136] | 5 | – | – | 5 | – | – | – | 5 | 5 | 5 | 1 | 5
CN(C(=O)Cc1ccccc1)C(c1cncnc1C(F)(F)F)C1CC1 (racemic) [Compound 1-34] | 5 | 5 | 5 | 5 | 5 | 1 | 5 | – | – | – | – | –
CC(C)C(c1cncnc1C(F)(F)F)N(C)C(=O)Cc1ccc(Cl)c(F)c1 (racemic) [1-180] | 5 | – | – | 5 | – | – | – | 5 | 5 | 5 | 1 | 5
Cc1ccc(CC(=O)N(C)C(c2ccccc2)c2cncnc2C(F)(F)F)cc1 (racemic) [1-197] | 5 | – | – | 5 | – | – | – | 5 | 5 | 5 | 0 | 5
CC(C)C(c1cncnc1C(F)(F)F)N(C)C(=O)Cc1ccc(Cl)cc1Cl (racemic) [Compound 1-124] | 5 | 5 | 5 | 5 | – | – | – | – | – | 5 | 0 | 5
